Test results: patent US9808512B2, “Anti-cell proliferative compounds and methods of use” (KALOS Therapeutics, priority 2007, dated 2017)
“And” between values parts separate entries of the source, which are not always exact repeats. Equal values may be shown once. “Also recorded” adds a separate entry of the source.

Legend:
[1] = system: Human Pancreatic Adenocarcinoma Cells (HPAC); assay: HPAC cell viability, Calbiochem Rapid Cell Proliferation Kit, optical density at 450 nm; type: cell-based; details: 48 hours; for Optical Densities in 96_Well Plate, Average: average of 5 replicate wells; for Optical Densities in 96_Well Plate: single replicate wells
Protocol: Human Pancreatic Adenocarcinoma Cells (HPAC) cells were obtained from ATCC and propagated in Dulbecco's modified Eagle's medium and Ham's F12 medium (DME-F12) (1:1) containing 2.5 mM glutamine, […], 5 ug/mL transferrin, 1 ng/mL EGF (epidermal growth factor), plus 5% FBS (fetal bovine serum). Cell cultures were incubated at 37° C., 5% CO2 in a 100% humidity atmosphere. The cells were routinely brought to confluence in T-flasks, rinsed with phosphate buffered saline (PBS), and treated with trypsin for 5 min at room temp. The trypsinized cells were rinsed from the plate with 10 mL medium and counted. Viability at subculturing was generally ≧95%.
Approximately 10,000 cells in 100 uL of medium were placed in each well of a 96-well plate and incubated over night. Peptides having the following sequences were used: Arg-15-Cys (RSSCAGAALSPLGAC; SEQ. ID NO:122); Pro-15-Val (PNEEAGAALSPLPEV; SEQ. ID NO:121); Ala-8-Leu (AGAALSPL; SEQ. ID NO:85); C-ANP 4-23 ([…]; SEQ. ID NO:124) and, VDL ([…]; SEQ. ID NO:125). The peptides were dissolved in PBS and sterile filtered. The peptides were diluted into the cell culture medium to the following final concentrations: 1, 0.3, 0.1, 0.03, and 0.01 uM. Each peptide was tested in 5 replicate wells. The cultures were incubated for an additional 48 hours at 37° C.
The viability of the cells was determined using a Calbiochem Rapid Cell Proliferation Kit (catalog number QIA127). Ten uL of Calbiochem color reagent was added to each well and incubated for an additional 1.5 hours at 37° C. Optical densities were read at 450 nm using a Molecular Devices ThermoMax microplate reader. The plate template is shown in Table I (unlabeled wells contained cells but no peptide and were used as blanks). Results are presented in Table I, and are graphically illustrated in FIGS. 1 and 2.

cancer cells = details: known natriuretic peptides; cited from earlier work
NPRC = target: T1, NPRC (Homo sapiens, UniProt P17342); details: cited from earlier work
T1 sequence (P17342 27-541): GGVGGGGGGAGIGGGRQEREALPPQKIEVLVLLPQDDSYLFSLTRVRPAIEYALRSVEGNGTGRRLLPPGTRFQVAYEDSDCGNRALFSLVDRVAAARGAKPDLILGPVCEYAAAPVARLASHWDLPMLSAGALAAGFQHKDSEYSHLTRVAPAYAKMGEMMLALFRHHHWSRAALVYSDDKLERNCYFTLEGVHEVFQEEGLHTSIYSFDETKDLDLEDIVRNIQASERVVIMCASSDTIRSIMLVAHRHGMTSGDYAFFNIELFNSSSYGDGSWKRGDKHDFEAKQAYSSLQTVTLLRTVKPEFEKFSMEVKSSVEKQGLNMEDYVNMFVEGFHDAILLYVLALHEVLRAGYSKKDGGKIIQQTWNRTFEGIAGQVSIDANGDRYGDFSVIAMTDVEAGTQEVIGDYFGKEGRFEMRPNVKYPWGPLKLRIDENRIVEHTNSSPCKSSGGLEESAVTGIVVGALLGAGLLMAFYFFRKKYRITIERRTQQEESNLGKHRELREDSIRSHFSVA

NPRA = target: T2, NPRA (Homo sapiens, UniProt P16066); details: cited from earlier work
T2 sequence (P16066 33-1061): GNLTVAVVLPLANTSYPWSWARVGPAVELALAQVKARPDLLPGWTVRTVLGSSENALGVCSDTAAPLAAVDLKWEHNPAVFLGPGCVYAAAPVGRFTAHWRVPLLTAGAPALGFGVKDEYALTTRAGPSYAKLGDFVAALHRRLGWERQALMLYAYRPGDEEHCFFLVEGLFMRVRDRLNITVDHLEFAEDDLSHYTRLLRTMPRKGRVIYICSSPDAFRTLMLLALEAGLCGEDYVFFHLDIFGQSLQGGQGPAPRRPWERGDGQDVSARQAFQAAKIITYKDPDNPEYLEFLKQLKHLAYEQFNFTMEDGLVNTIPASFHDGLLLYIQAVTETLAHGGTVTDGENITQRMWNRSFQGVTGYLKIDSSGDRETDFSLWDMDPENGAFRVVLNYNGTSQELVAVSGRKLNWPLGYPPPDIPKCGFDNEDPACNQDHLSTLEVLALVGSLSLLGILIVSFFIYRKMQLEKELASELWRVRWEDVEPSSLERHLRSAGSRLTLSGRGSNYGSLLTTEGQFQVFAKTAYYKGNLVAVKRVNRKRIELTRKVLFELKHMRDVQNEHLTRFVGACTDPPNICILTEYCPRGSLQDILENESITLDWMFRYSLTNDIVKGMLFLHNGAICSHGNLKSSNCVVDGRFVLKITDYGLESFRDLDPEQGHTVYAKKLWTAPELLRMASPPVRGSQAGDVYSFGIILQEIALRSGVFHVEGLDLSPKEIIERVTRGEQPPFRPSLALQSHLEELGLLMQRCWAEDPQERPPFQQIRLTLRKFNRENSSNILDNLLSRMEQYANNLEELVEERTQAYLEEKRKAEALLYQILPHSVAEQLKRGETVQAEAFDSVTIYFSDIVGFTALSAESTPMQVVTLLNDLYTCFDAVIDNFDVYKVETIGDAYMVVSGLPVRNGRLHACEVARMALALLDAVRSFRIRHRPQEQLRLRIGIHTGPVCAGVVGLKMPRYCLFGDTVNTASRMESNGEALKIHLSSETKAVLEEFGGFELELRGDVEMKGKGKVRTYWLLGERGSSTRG

Row | Substance | Optical Densities in 96_Well Plate, Average ([1]; peptide 0.01 μM) | Optical Densities in 96_Well Plate ([1]; peptide 0.01 μM) | Optical Densities in 96_Well Plate, Average ([1]; peptide 0.03 μM) | Optical Densities in 96_Well Plate ([1]; peptide 0.03 μM) | Optical Densities in 96_Well Plate, Average ([1]; peptide 0.1 μM) | Optical Densities in 96_Well Plate ([1]; peptide 0.1 μM) | Optical Densities in 96_Well Plate, Average ([1]; peptide 0.3 μM) | Optical Densities in 96_Well Plate ([1]; peptide 0.3 μM) | Optical Densities in 96_Well Plate, Average ([1]; peptide 1.0 μM) | Optical Densities in 96_Well Plate ([1]; peptide 1.0 μM) | anticancer activity / relative potency (cancer cells) | binding affinity at NPRC (NPRC) | binding affinity at NPRA (NPRA)
1 | AGAALSPL [Ala-8-Leu, ID NO:85] | 0.937 | 0.744 and 0.878 and 1.000 and 0.892 and 1.169 | 0.976 | 0.892 and 0.937 and 0.989 and 0.921 and 1.139 | 0.991 | 0.832 and 1.006 and 1.031 and 0.910 and 1.174 | 1.002 | 0.784 and 0.802 and 0.998 and 1.357 and 1.070 | 0.985 | 0.732 and 1.216 and 0.954 and 0.834 and 1.189 | – | – | –
2 | ANP: Natriuretic peptide; Table III sequence SLRRSSCFGGRMDRIGAQSGLGCNSFRY, SEQ ID NO:126 [reference compound] | 0.908 | 0.981 and 0.815 and 0.822 and 0.965 and 0.955 | 0.935 | 0.948 and 0.882 and 0.911 and 0.951 and 0.982 | 0.838 | 0.884 and 0.889 and 0.907 and 0.862 and 0.650 | 0.974 | 1.001 and 0.889 and 0.837 and 0.934 and 1.209 | 0.914 | 1.018 and 0.819 and 0.954 and 0.829 and 0.951 | greater potency observed for ANP than CNP; also recorded: have anticancer activity | higher binding affinities | higher binding affinities
3 | EVVPPQVLSEPNEEAGAALSPLPEVPPWTGEVSPAQR [KT-220 (VDL), ID NO:125] | – | – | – | – | – | – | – | – | – | – | have anticancer activity | – | –
4 | PNEEAGAALSPLPEV [Pro-15-Val, ID NO:121] | 0.916 | 0.907 and 0.905 and 0.633 and 1.209 and 0.928 | 0.894 | 0.892 and 0.765 and 0.693 and 1.151 and 0.970 | 0.918 | 0.680 and 0.895 and 0.893 and 1.156 and 0.964 | 0.916 | 0.875 and 0.817 and 0.855 and 1.024 and 1.010 | 0.948 | 0.856 and 0.752 and 0.802 and 1.083 and 1.248 | – | – | –
5 | RSSCAGAALSPLGAC [Arg-15-Cys, ID NO:122] | 0.934 | 0.974 and 0.920 and 0.863 and 0.840 and 1.075 | 0.982 | 1.093 and 0.894 and 0.789 and 0.955 and 1.178 | 0.950 | 1.016 and 0.917 and 0.801 and 0.990 and 1.025 | 0.897 | 0.988 and 0.957 and 0.668 and 0.913 and 0.959 | 0.962 | 1.155 and 1.005 and 0.787 and 0.944 and 0.919 | – | – | –
6 | RSSCFGGRIDRIGAC [C-ANP 4-23, ID NO:124, reference compound] | 0.938 | 0.877 and 0.971 and 0.953 and 0.932 and 0.958 | 0.932 | 0.905 and 0.882 and 0.981 and 0.948 and 0.943 | 0.942 | 0.758 and 1.027 and 0.983 and 0.960 and 0.982 | 0.942 | 0.840 and 0.928 and 1.035 and 0.975 and 0.932 | 0.925 | 0.865 and 0.925 and 0.900 and 0.955 and 0.981 | have anticancer activity | – | –
